System: adult wheat stem sawflies (C. cinctus)
Assay: Y-tube olfactometry insect repellency test
Format: in vivo
Details: for Ratio: preference of insect to non-naphthalene side (control) of Y-tube vs. naphthalene source side of tube: control acetone on paper disk, 30 insects
Description: FIG. 1. A highly schematic drawing of the olfactory Y-tube used to measure insect behavior in the presence of various naphthalene sources. A 6.3 volt light source is placed at the base of the Y-tube as illustrated in the drawing.
In controlled, replicated experiments, both authentic naphthalene as well as M. vitigenus, were used as odor sources in Y-tube olfactometry tests (FIG. 1). […] Thirty successful trials using naphthalene test solution A (with a naphthalene release rate of 12 ng hr^−1) were completed (Table 1). Out of 30 insects, 24 responded by moving away from the naphthalene source. A second set of 30 successful trials were completed using naphthalene test solution B. Out of 30 insects, 21 were repelled by the naphthalene source. Finally, sixty successful trials were preformed using 0.0785 cm^2 fungal plugs (2-3 weeks old) of M. vitigenus as the odor source. Out of the 60 insects, 49 traveled away from the fungus and its volatiles. The results of both test concentrations of authentic naphthalene were statistically different from the acetone control test papers (Table 1). Insect behaviour in tests involving agar plugs containing M. vitigenus was also statistically different (a=0.001) from the controls (Table 1). […] Table 1. Influence of authentic naphthalene and M. vitigenus volatiles, containing mostly naphthalene, on the behavior of adult wheat stem sawflies (C. cinctus). Bioassay tests were conducted in Y-olfactory tubes.

SMILES: c1ccc2ccccc2c1 [Authentic naphthalene, naphthalene]
- Insect behaviour (orientation) in the presence of the odor source (many of the insects tested, Y-tube): more disoriented than usual
- Number of insects moving away from the naphthalene source (out of 30 insects, naphthalene test solution A (release rate 12 ng hr^-1)): 24
- Number of insects repelled by the naphthalene source (out of 30 insects, naphthalene test solution B): 21
- Ratio: preference of insect to non-naphthalene side (control) of Y-tube vs. naphthalene source side of tube (test concentration (A), naphthalene release rate 12 ng hr^-1): 24/6
- Ratio: preference of insect to non-naphthalene side (control) of Y-tube vs. naphthalene source side of tube (test concentration (B)): 21/9

From patent US7267975B2, “Methods and compositions relating to insect repellents from a novel endophytic fungus” (Montana State University, priority 2002, dated 2007)
